Here are results for 2 substances from PMC5121526, “Chemerin Elicits Potent Constrictor Actions via Chemokine‐Like Receptor 1 (CMKLR1), not G‐Protein‐Coupled Receptor 1 (GPR1), in Human and Rat Vasculature” (Journal of the American Heart Association: Cardiovascular …, 2016).

Ends that are not written are not given here.

Holding throughout (assay type): cell-based
Assay [1] has as its target T1, human CMKLR1 (Homo sapiens, UniProt Q99788).
T1 construct: host or cells: CHO-K1
T1 sequence (Q99788 1-373): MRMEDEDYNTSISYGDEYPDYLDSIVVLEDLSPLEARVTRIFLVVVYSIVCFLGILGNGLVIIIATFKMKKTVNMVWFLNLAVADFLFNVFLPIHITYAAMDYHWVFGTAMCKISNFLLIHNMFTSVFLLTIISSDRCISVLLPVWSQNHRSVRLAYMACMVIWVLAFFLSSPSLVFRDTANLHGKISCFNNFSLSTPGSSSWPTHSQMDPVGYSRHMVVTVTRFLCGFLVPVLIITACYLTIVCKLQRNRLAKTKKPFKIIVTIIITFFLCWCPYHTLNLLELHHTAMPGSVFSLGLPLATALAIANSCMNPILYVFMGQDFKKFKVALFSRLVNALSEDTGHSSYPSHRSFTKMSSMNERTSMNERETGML
Put plainly: β‐Arrestin recruitment at CMKLR1. The procedure: (§1) β‐Arrestin recruitment (CMKLR1 and GPR1) and cAMP assays (CMKLR1; DiscoverX, Fremont, CA) were carried out with CHO‐K1 cells expressing either human CMKLR1 or GPR1, according to the manufacturer's instructions. […] Data were subsequently normalized to the maximum response to C13 used as the reference agonists in each assay.
In general terms: Arrestin recruitment assays detect the binding of arrestin to an activated receptor.

The target of assay [2] is T2, human GPR1 (Homo sapiens, UniProt P46091).
T2 construct: host or cells: CHO-K1
T2 sequence (P46091 1-355): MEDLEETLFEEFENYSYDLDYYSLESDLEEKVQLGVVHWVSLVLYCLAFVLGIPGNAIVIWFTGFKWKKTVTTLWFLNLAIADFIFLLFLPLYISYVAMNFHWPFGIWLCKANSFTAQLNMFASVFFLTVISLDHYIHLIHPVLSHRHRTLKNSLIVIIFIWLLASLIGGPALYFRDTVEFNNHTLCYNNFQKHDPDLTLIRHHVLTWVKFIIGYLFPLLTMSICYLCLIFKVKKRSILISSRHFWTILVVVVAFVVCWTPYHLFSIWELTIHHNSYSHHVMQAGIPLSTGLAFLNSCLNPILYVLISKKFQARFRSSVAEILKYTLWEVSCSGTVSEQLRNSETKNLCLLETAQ
Put plainly: β‐Arrestin recruitment at GPR1. The protocol: as §1

In assay [3] the target is T1, human CMKLR1. Put plainly: cAMP inhibition at CMKLR1. As to conditions: inhibition of forskolin‐evoked cAMP accumulation, CHO‐K1 cells, n: Chemerin 3, C9 4, C13 3, mean±SEM. The procedure:
as §1
In general terms: cAMP levels reflect the balance of adenylyl cyclase and phosphodiesterase activity.

As to PHSFYFPGQFAFS [C13], the EC50 was 70.8 nM in assay [1], 2.24 nM in assay [2] and 0.759 nM in assay [3] (read-out: pD2 (converted)). In addition, the Emax (commonly the maximal effect, on the per cent scale that the assay sets) in assay [1] is 94 ± 2%; in assay [2] it was 97 ± 3%.

For “Chemerin: Human recombinant chemerin(21–157) purchased from R&D Systems”, the pD2 in assay [1] (β‐arrestin recruitment, CHO‐K1 cells, CMKLR1, n: Chemerin 3, C9 3, C13 6, mean±SEM) is 9.37±0.05; in assay [2] (β‐arrestin recruitment, CHO‐K1 cells, GPR1, n: Chemerin 3, C9 7, C13 9, mean±SEM) it was 9.05±0.09; in assay [3], 8.45±0.10.
